The record followed here is the NIST ThermoML archive (doi:10.1021/je400544h).

For the data set the following is noted: Liquid, Ebulliometric method (Recirculating still).

Numbers after ± are expanded uncertainties.

Consider `FC(F)(F)C(Cl)(Cl)Cl` [1,1,1-trichloro-2,2,2-trifluoroethane], for which the “vapor or sublimation pressure” value (319.15 K) was found to be 101.3 ± 2 kPa.

Regarding `CC(C)=O` [acetone], under “329.37 K”, the “vapor or sublimation pressure” value worked out at 101.3 ± 1.8 kPa.

With `CCO` [ethanol], where the note is “351.45 K”, the “vapor or sublimation pressure” value worked out at 101.3 ± 1.8 kPa.

With `O=S(=O)(Cl)Cl` [sulfuryl chloride], under “342.6 K”, the “vapor or sublimation pressure” value is 101.3 ± 2 kPa.
